Assay results as given in patent US20230024438A1, “INHIBITORS OF HIF-2ALPHA” (ARCUS BIOSCIENCES, INC., priority 2019, published 2023).

Experiments:
[1] = target: T1, Histidine tagged HIF-2α protein containing PAS-B domain (240-350) (Homo sapiens, UniProt Q99814); experiment: HIF-2α Scintillation Proximity Assay (SPA); type: binding; conditions: 50 nM HIF-2α protein, 25 nM radiolabeled tracer; read-out: HIF-2α Scintillation Proximity Assay
T1 construct: Histidine tagged HIF-2α protein containing PAS-B domain (240-350) was prepared and purified in house; made in house
T1 sequence (Q99814 240-350): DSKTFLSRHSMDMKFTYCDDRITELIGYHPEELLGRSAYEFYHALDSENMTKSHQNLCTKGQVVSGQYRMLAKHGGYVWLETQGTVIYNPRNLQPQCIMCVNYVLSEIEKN
Protocol: Tritium labeled compound N-(3-chlorophenyl)-4-nitro-2,1,3-benzoxadiazol-5-amine was obtained from American Radiolabeled Chemicals Inc. and copper chelate PVT SPA beads were from PerkinElmer (Cat #RPNQ0095). Histidine tagged HIF-2α protein containing PAS-B domain (240-350) was prepared and purified in house.
Compounds solubilized in DMSO were dispensed into a white 384-well polystyrene non-binding flat clear bottom plate (Greiner Bio-One, Cat #781903) using an HP D300 dispenser. Ten microliters of HIS-tagged HIF-2α protein in buffer (25 mM Tris-HCl, pH 7.4, 150 mM NaCl, 0.15% BSA and 0.001% Tween 20) was added to the compound wells and allowed to incubate for 1 hour at room temperature. Ten microliters of SPA bead mix were added to the wells and incubated for an additional 45 minutes, followed by 10 ul of ^3H-tracer solution. Final assay conditions comprised 50 nM HIF-2α protein, 25 nM radiolabeled tracer and 3 ug beads per well with compounds in 2% DMSO. The plate was read using a MicroBeta Microplate Counter (PerkinElmer) for luminescence detection. The IC50 values of the test compounds were determined from compound dose response curves fitted using a standard four parameter fit equation and are reported in Table 1.

HIF-2α = target: T2, HIF-2α (Homo sapiens, UniProt Q99814); experiment: HIF-2α Luciferase Reporter Assay; type: cell-based; conditions: HIF-Luc-786-0 cells, 20 hours incubation, luciferase activity; read-out: HIF-2α Luciferase Assay
T2 construct: endogenous in cells; host or cells: 786-O cells (ATCC CRL-1932) stably carrying the Cignal Lenti HIF Luc Reporter
T2 sequence (Q99814 whole entry): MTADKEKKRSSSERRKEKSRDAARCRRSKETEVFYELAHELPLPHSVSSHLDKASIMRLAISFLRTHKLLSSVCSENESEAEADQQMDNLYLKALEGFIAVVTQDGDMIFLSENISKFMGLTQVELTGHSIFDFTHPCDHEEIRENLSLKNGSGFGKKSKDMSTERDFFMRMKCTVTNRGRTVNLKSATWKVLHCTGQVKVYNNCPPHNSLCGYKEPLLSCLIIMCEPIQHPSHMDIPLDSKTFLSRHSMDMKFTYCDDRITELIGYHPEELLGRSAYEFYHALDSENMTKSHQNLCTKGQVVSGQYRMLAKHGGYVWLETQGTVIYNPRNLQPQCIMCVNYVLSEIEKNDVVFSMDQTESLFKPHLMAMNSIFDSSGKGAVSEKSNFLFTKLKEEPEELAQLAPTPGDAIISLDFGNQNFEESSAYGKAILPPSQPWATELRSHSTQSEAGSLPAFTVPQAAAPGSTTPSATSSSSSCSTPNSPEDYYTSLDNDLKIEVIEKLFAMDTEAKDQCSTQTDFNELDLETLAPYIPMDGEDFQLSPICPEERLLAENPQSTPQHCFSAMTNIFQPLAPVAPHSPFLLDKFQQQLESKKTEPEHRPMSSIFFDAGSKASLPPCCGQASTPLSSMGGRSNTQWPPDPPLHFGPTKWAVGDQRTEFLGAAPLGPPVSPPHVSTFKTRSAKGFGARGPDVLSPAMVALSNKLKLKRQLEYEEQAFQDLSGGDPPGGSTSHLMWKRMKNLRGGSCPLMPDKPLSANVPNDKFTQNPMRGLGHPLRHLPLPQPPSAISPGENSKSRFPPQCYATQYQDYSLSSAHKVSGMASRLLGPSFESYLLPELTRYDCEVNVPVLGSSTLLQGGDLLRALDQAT
Protocol: Stable cell lines were generated by transducing 786-O cells (ATCC, CRL-1932) with Cignal Lenti HIF Luc Reporter lentivirus (CLS-007L, Qiagen) according to the manufacturer's guidelines. In brief, 0.3×10^6 786-0 cells were transduced with lentivirus at a Multiplicity of Infection (MOI) of 25 for 24 hours. After transduction, cells were replenished with fresh RPMI 1640 Medium (Cat. No. 11875085, Thermo Fisher,) supplemented with 10% FBS (Cat. No. A3160502, Gibco), 2 mM GlutaMax (Cat. No. 35050-061, Invitrogen) and 100 units of penicillin and 100 μg of streptomycin/mL (Cat. No 15070063, Thermo Fisher) for another 24 hours. Antibiotic selection was performed in cell media containing 4 μg/mL of Puromycin. After 7 days of antibiotic selection, stable pools of surviving cells were expanded and used in a luciferase reporter assay.
On day one, 20 uL of HIF-Luc-786-0 cells in OptiMem (Cat. No. 31985088, Thermo Fisher) were seeded into each well of a 384 well white opaque plate (Corning 3570) and incubated at 37° C. and 5% CO2. Twenty microliters of 2× test compounds in OptiMem were added to cells after 4 hours of incubation. Final assay conditions comprised 20,000 cells per well in 1% DMSO with test compound concentrations ranging from 50 uM to 0 uM. After 20 hours incubation at 37° C. and 5% CO2, luciferase activity was determined using ONE-Glo Luciferase Assay Reagent (E6110, Promega) following the manufacture's recommended procedure. Briefly, 40 uL of ONE-Glo luciferase reagents were added to each well and luciferase signals were measured using an Envision 2102 Multilabel Reader. Percentage maximum activity in each test well was calculated based on DMSO (maximum activity) and no cell control wells (baseline activity). The IC50 values of the test compounds were determined from compound dose response curves fitted using a standard four parameter fit equation.

| IC50 [1] | IC50 (HIF-2α) | SMILES |
| --- | --- | --- |
| 1 to 10 µM | > 10 µM | N#Cc1cc(Oc2ccc(S(=O)(=O)C(F)(F)F)c3[nH]ncc23)ccc1Cl [Example 35, 2-Chloro-5-[[7-(trifluoromethylsulfonyl)-1H-indazol-4-yl]oxy]benzonitrile] |
| > 10 µM | > 10 µM | O=S(=O)(c1ccc(Oc2ccc(Cl)c(F)c2)c2cn[nH]c12)C(F)(F)F [Example 33, 4-(4-Chloro-3-fluorophenoxy)-7-(trifluoromethylsulfonyl)-1H-indazole] |
|  | > 10 µM | N#Cc1ccc(F)c(Oc2ccc(S(=O)(=O)C(F)(F)F)c3[nH]ncc23)c1 [Example 44, 4-Fluoro-3-[(7-trifluoromethanesulfonyl-1H-indazol-4-yl)oxy]benzonitrile] |
| < 1 µM | > 10 µM | N#Cc1cccc(Oc2ccc(S(=O)(=O)C(F)(F)F)c3[nH]nc(Cl)c23)c1 [Example 62, m-[3-Chloro-7-(trifluoromethylsulfonyl)-1H-indazol-4-yloxy]benzonitrile] |
| > 10 µM | > 10 µM | Cc1cncc(Oc2ccc(S(=O)(=O)C(F)(F)F)c3[nH]ncc23)n1 [Example 21, 4-[(6-Methylpyrazin-2-yl)oxy]-7-trifluoromethanesulfonyl-1H-indazole] |
| 1 to 10 µM | 1 to 10 µM | O=S(=O)(c1ccc(Oc2cccc(F)c2)c2cn[nH]c12)C(F)(F)F [Example 31, 4-(3-Fluorophenoxy)-7-(trifluoromethylsulfonyl)-1H-indazole] |
| > 10 µM | > 10 µM | O=S(=O)(c1ccc(Oc2cccc(C(F)(F)F)c2)c2cn[nH]c12)C(F)(F)F [Example 32, 4-[3-(Trifluoromethyl)phenoxy]-7-(trifluoromethylsulfonyl)-1H-indazole] |
| > 10 µM | > 10 µM | O=S(=O)(c1ccc(NCc2ccc(F)cc2)c2cn[nH]c12)C(F)(F)F [Example 52, N-[(4-fluorophenyl)methyl]-7-(trifluoromethylsulfonyl)-1H-indazol-4-amine] |
| 1 to 10 µM | 1 to 10 µM | Fc1cc(Cl)cc(Oc2cnc(C(F)(F)F)c3[nH]ncc23)c1 [Example 69, 4-(3-Chloro-5-fluorophenoxy)-7-(trifluoromethyl)-1H-pyrazolo[3,4-c]pyridine] |
| 1 to 10 µM | 1 to 10 µM | O=S(=O)(c1ccc(Oc2cncc(Cl)c2)c2cn[nH]c12)C(F)(F)F [Example 23, 4-[(5-Chloropyridin-3-yl)oxy]-7-trifluoromethanesulfonyl-1H-indazole] |
| < 1 µM | 1 to 10 µM | O=S(=O)(c1ccc(Oc2cccc(Cl)c2)c2cn[nH]c12)C(F)(F)F [Example 41, 4-(3-Chlorophenoxy)-7-(trifluoromethylsulfonyl)-1H-indazole] |
| < 1 µM | 1 to 10 µM | O=S(=O)(c1ccc(Oc2cc(F)cc(Cl)c2)c2cn[nH]c12)C(F)(F)F [Example 40, 4-(3-Chloro-5-fluorophenoxy)-7-(trifluoromethylsulfonyl)-1H-indazole] |
| > 10 µM | > 10 µM | O=S(=O)(c1ccc(Oc2cc(Cl)cc(OC(F)(F)F)c2)c2cn[nH]c12)C(F)(F)F [Example 29, 4-[3-Chloro-5-(trifluoromethoxy)phenoxy]-7-(trifluoromethylsulfonyl)-1H-indazole] |
| 1 to 10 µM | 1 to 10 µM | N#Cc1cc(F)cc(Nc2ccc(C(F)(F)F)c3[nH]ncc23)c1 [Example 14, 3-Fluoro-5-[7-(trifluoromethyl)-1H-indazol-4-ylamino]benzonitrile] |
| 1 to 10 µM |  | N#Cc1cc(C#N)cc(Oc2ccc(S(=O)(=O)C(F)(F)F)c3[nH]ncc23)c1 [Example 22, 5-[(7-Trifluoromethanesulfonyl-1H-indazol-4-yl)oxy]benzene-1,3-dicarbonitrile] |
|  | 1 to 10 µM | CS(=O)(=O)c1ccc(Oc2cccc(Cl)c2)c2cn[nH]c12 [Example 5, 4-(3-Chlorophenoxy)-7-methanesulfonyl-1H-indazole] |
|  | > 10 µM | CS(=O)(=O)c1ccc(Oc2cc(F)cc(C#N)c2)c2cn[nH]c12 [Example 3, 3-Fluoro-5-[(7-methanesulfonyl-1H-indazol-4-yl)oxy]benzonitrile] |
|  | 1 to 10 µM | N#Cc1ccc(Cl)c(Oc2ccc(S(=O)(=O)C(F)(F)F)c3[nH]ncc23)c1 [Example 43, 4-Chloro-3-[(7-trifluoromethanesulfonyl-1H-indazol-4-yl)oxy]benzonitrile] |

Continued, molecule first:

| SMILES | IC50 [1] | IC50 (HIF-2α) |
| --- | --- | --- |
| Cc1n[nH]c2c(S(=O)(=O)C(F)(F)F)ccc(Oc3cc(F)cc(C#N)c3)c12 [Example 58, 3-Fluoro-5-[(3-methyl-7-trifluoromethanesulfonyl-1H-indazol-4-yl)oxy]benzonitrile] | 1 to 10 µM | 1 to 10 µM |
| O=S(=O)(c1ccc(Oc2ccc(F)c(Cl)c2)c2cn[nH]c12)C(F)(F)F [Example 38, 4-(3-Chloro-4-fluorophenoxy)-7-(trifluoromethylsulfonyl)-1H-indazole] | 1 to 10 µM | 1 to 10 µM |
| O=S(=O)(c1ccc(Oc2ccccc2)c2cn[nH]c12)C(F)(F)F [Example 16, 4-Phenoxy-7-(trifluoromethylsulfonyl)-1H-indazole] | > 10 µM | 1 to 10 µM |
| O=S(=O)(c1ccc(N2CCCc3cc(F)cc(F)c32)c2cn[nH]c12)C(F)(F)F [Example 49, 6,8-Difluoro-1-(7-trifluoromethanesulfonyl-1H-indazol-4-yl)-1,2,3,4-tetrahydroquinoline] |  | > 10 µM |
| N#Cc1cc(F)cc(Nc2cncc3[nH]ncc23)c1 [Example 66, 3-Fluoro-5-({1H-pyrazolo[3,4-c]pyridin-4-yl}amino)benzonitrile] |  | 1 to 10 µM |
| N#Cc1cc(F)cc(Nc2cc(Cl)cc3[nH]ncc23)c1 [Example 65, 3-[(6-Chloro-1H-indazol-4-yl)amino]-5-florobenzonitrile] |  | 1 to 10 µM |
| O=S(=O)(c1ccc(NCc2ccc(F)cc2C(F)(F)F)c2cn[nH]c12)C(F)(F)F [Example 55, N-[[4-fluoro-2-(trifluoromethyl)phenyl]methyl]-7-(trifluoromethylsulfonyl)-1H-indazol-4-amine] | > 10 µM | > 10 µM |
| O=S(=O)(c1ccc(NCc2ccccc2F)c2cn[nH]c12)C(F)(F)F [Example 50, N-[(2-Fluorophenyl)methyl]-7-(trifluoromethylsulfonyl)-1H-indazol-4-amine] | > 10 µM | > 10 µM |
| N#Cc1cncc(Oc2ccc(S(=O)(=O)C(F)(F)F)c3[nH]ncc23)c1 [Example 24, 5-[(7-Trifluoromethanesulfonyl-1H-indazol-4-yl)oxy]pyridine-3-carbonitrile] | 1 to 10 µM | 1 to 10 µM |
| N#Cc1cc(F)cc(Oc2cnc(C(F)(F)F)c3[nH]ncc23)c1 [Example 68, 3-Fluoro-5-{[7-(trifluoromethyl)-1H-pyrazolo[3,4-c]pyridin-4-yl]oxy}benzonitrile] | 1 to 10 µM | 1 to 10 µM |
| O=S(=O)(c1ccc(Nc2cc(F)cc(F)c2)c2cn[nH]c12)C(F)(F)F [Example 46, (3,5-Difluorophenyl)[7-(trifluoromethylsulfonyl)-1H-indazol-4-yl]amine] | 1 to 10 µM | > 10 µM |
| CS(=O)(=O)c1ccc(Oc2ccc(Cl)c(Cl)c2)c2cn[nH]c12 [Example 6, 4-(3,4-Dichlorophenoxy)-7-methanesulfonyl-1H-indazole] |  | 1 to 10 µM |
| N#Cc1cc(F)cc(Nc2ncnc3[nH]ncc23)c1 [Example 67, 3-Fluoro-5-({1H-pyrazolo[3,4-d]pyrimidin-4-yl}amino)benzonitrile] |  | 1 to 10 µM |
| CS(=O)(=O)c1ccc(Nc2cc(F)cc(C#N)c2)c2cn[nH]c12 [Example 1, 3-Fluoro-5-[(7-methanesulfonyl-1H-indazol-4-yl)amino]benzonitrile] |  | 1 to 10 µM |
